In US8445511B2, “Quinoline or quinoxaline derivatives for treating neurodegenerative diseases” (Centre National de la Recherche Scientifique (SNRS), priority 2008, dated 2013):
Entries after “also recorded” stand apart in the source; their conditions may differ.

Columns and labels:
[1] = tested on: fetal dopaminergic neurons in culture; assay: Neuroprotection and differentiation of dopaminergic (TH+) neurons in primary culture of rat embryo mesencephalon (spontaneous degeneration model); type: cell-based; parameters: key to Diff (qualitative assessment of neuron differentiation): + indicates that the neurons have a morphology similar to that of the control; ++ and +++ indicate the presence of neurons whose extensions are longer and more numerous than the control neurons; ++ and +++ indicate the presence of neurons whose extensions are longer and more numerous than the control neurons; − indicates that the neurons have neurites that are shorter and less numerous than the control neurons
Description: Dissection consists in extracting the embryos from the uterus of a rat at fifteen days of gestation. The brain of each embryo is then dissected under a binocular magnifier in order to extract the ventral mesencephalon.
The mesencephalons are gathered in a flask containing 2 ml of L15 medium and then mechanically dissociated (30 times), and then 5 ml of L15 medium are added. The suspension is left to rest for 8 minutes. 5 ml of the supernatant are recovered in a new flask and the cells are dissociated again (30 times). 5 ml of L15 are again added and the suspension is left to rest for 8 minutes. 5 ml of supernatant are added to the preceding. The cells thus extracted are then centrifuged for 5 minutes at 1,000 rpm. The cell pellet is taken up in Neurobasal medium supplemented with 1% B27, 1% glutamine and 1% penicillin/streptomycin mixture. The cells are then inoculated at the appropriate dilution (0.6 embryo per well on a 24-well plate and 0.4 per well on a 48-well plate). The cultures are incubated at 37° C. in a humid atmosphere enriched with 5% CO2 in a 24- or 48-well plate.
After 24 hours, two-thirds of the medium of each well is replaced by new medium enriched with the compound of the invention to test at the appropriate dilution. The medium is replaced in the same way after 4 days of culture.
At 8 days of culture, the cells are fixed by a 4% formaldehyde solution and then washed three times with PBS. The cells then undergo several immunohistochemistry procedures: • anti-tyrosine hydroxylase (TH) visualized by a secondary antibody coupled to a fluorochrome that emits in the red spectrum (Cy3). • anti-MAP2 (MAP=microtubule-associated protein) (neuron marker) visualized by a secondary antibody coupled to a fluorochrome that emits in the green spectrum (alexa488). • DAPI (4′,6-diamidino-2-phenylindole), a nuclear marker that emits in the blue spectrum.
Neuroprotection is evaluated by counting TH positive neurons directly under the microscope or MAP2 positive on images, at 15 images per well, expressed as a percentage of the untreated control. The experiments include three wells per condition. Three independent experiments are carried out under these conditions. Total neurite length per cell calculated by the Neurite Outgrowth software by Explora Nova on 20 neurons photographed independently per well gives an indication of the state of maturation of the dopaminergic neurons.
The compounds of the invention were tested on a model of spontaneous degeneration of dopaminergic neurons in culture.
This model consists of culturing cells of the ventral mesencephalon of rat embryo. This part of the brain in culture contains dopaminergic neurons and other primarily GABAergic neurons. These cultures are also composed of glial cells, namely astrocytes, oligodendrocytes and microglia. This is a model of spontaneous degeneration of dopaminergic neurons which mimics certain aspects of Parkinson's disease.
The neuroprotective effect of the compounds of the invention was evaluated by counting dopaminergic neurons (TH^+) marked by tyrosine hydroxylase (TH) immunohistochemistry after 8 days of culture. Thus the compounds were evaluated at 1 nM, 10 nM, 100 nM and 1 μM and were compared with the activity of dibutyryl cyclic AMP (db-cAMP) used as the reference product.
In order to evaluate more quantitatively the activity of the compounds of the invention, neurite growth per cell was measured using the Neurite Outgrowth software developed by Explora Nova. A minimum of 60 neurons per condition were photographed and studied, and the results were then averaged and normalized by the number of neurons considered.

GABAergic neurons = assay: Measurement of tritiated GABA reuptake in primary mesencephalic cultures; type: cell-based, rat; details: 12 days of culture; 10 nM and 100 nM; FIG. 6
Description: The primary cultures are treated and cultivated as previously indicated with 0.5 embryo per well in a 24-well plate for 12 days. The medium is then replaced by a medium lacking serum and enriched with glucose (PBS+5 mM glucose). The cells are incubated in this medium for 10 minutes. 50 μl of tritiated GABA in solution (20 μl of 1 mCi/ml ^3H-GABA in 1 ml PBS) is added in each well and the cells are incubated for 5 minutes at 37° C. Since GABA is taken back up very quickly, it is important to be fast when adding reagents and not to handle too many wells at the same time.
All wells except one are then washed twice with PBS, and then 500 μl distilled water is added. The cells are scraped and the liquid transferred to scintillation vials containing 7 ml scintillation liquid (Biodegradable Counting Scintillant-liquid scintillation spectroscopy, BCS), well by well. The plate containing the remaining well is placed on ice for 30 minutes, then 50 μl of the same GABA solution is added. After 5 minutes, the well is washed twice with PBS and then the cells are lysed with 500 μl distilled water, scraped and the liquid is transferred to a vial containing 5 ml scintillation liquid. This well will be used to measure non-specificity. The samples are run through the scintillation counter.

C#CC(O)CCCCCCCCCCCCC#Cc1ccc2ccccc2n1 (stereo not drawn) [Compound N3, 17-(quinolin-2-yl)heptadec-1,16-diyn-3-ol]
dose-response of effect on survival of dopaminergic neurons ([1]; 1 nM, 10 nM, 100 nM and 1 μM, FIG. 2): dose-dependent
Diff (qualitative assessment of neuron differentiation) ([1]; 100 nM, dopaminergic neurons in culture): +++
viability at 0.1 µM ([1]; Rattus norvegicus, Neuron, 192 h, 100 nM, survival of TH+ dopaminergic neurons after 8 days of culture, read-out: % Neurons relative to the control ±SEM): 154 ± 4.1%
neuroprotective activity (percentage of survival of dopaminergic neurons), in words, versus reference product db-cAMP ([1]; dopaminergic neurons, 8 days of culture): equal to or greater than that of the reference product; also recorded: the most active compound
concentration of maximum effect on survival of dopaminergic neurons ([1]; dose-response curve, FIG. 2): 100 nM
activity of total neurons of the culture (reuptake of tritiated GABA) versus untreated control (GABAergic neurons): increased
